In the supplement of paper PMC10307832:

Legend:
Assay in all cases: relative viability (nuclei count vs DMSO), 5 days (fraction); higher = more cells survive
RO-3306 + Olaparib = compound: C1=CC2=C(C=CC(=C2)C=C3C(=O)NC(=NCC4=CC=CS4)S3)N=C1 [RO-3306] + O=C(c1cc(Cc2n[nH]c(=O)c3ccccc23)ccc1F)N1CCN(C(=O)C2CC2)CC1 [Olaparib] (partner 8 µM)
In short: (§1)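 Relative viability divides the nuclei count in treated wells by that in vehicle wells. Lung cancer cell lines were seeded in 1536-well plates, dosed by pin tool the next day, and fixed and stained after 5 days in one step with final 0.05% Triton X-100, 1% formaldehyde and 1 ug/ml Hoechst. Dosing was a single drug or a fixed anchor-drug dose plus five library-drug doses (not always all listed) in √10 steps, and values are medians of duplicate plates imaged at 4×.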

RO-3306 + Navitoclax = compound: C1=CC2=C(C=CC(=C2)C=C3C(=O)NC(=NCC4=CC=CS4)S3)N=C1 [RO-3306] + CC1(C)CCC(c2ccc(Cl)cc2)=C(CN2CCN(c3ccc(C(=O)NS(=O)(=O)c4ccc(N[C@H](CCN5CCOCC5)CSc5ccccc5)c(S(=O)(=O)C(F)(F)F)c4)cc3)CC2)C1 [Navitoclax] (partner 0.5 µM)
In short: as §1

[1] = compound: O=S(=O)(c1ccccc1)N(CC(F)(F)F)c1ccc(C(O)(C(F)(F)F)C(F)(F)F)cc1 + CS(=O)(=O)N1CCN(Cc2cc3nc(-c4cccc5[nH]ncc45)nc(N4CCOCC4)c3s2)CC1 [Pictilisib] (partner 1 µM)
In short: as §1

[2] = compound: O=S(=O)(c1ccccc1)N(CC(F)(F)F)c1ccc(C(O)(C(F)(F)F)C(F)(F)F)cc1 + C[C@@H](Oc1cc(-c2cnn(C3CCNCC3)c2)cnc1N)c1c(Cl)ccc(F)c1Cl [Crizotinib] (partner 1 µM)
In short: as §1

[3] = compound: O=S(=O)(c1ccccc1)N(CC(F)(F)F)c1ccc(C(O)(C(F)(F)F)C(F)(F)F)cc1 + CC(=O)c1c(C)c2cnc(Nc3ccc(N4CCNCC4)cn3)nc2n(C2CCCC2)c1=O [Palbociclib] (partner 0.5 µM)
In short: as §1

Cell Line | relative viability (RO-3306 + Olaparib; first compound 0.01 µM) | relative viability (RO-3306 + Olaparib; first compound 0.03162 µM) | relative viability (RO-3306 + Olaparib; first compound 0.1 µM) | relative viability (RO-3306 + Olaparib; first compound 0.3162 µM) | relative viability (RO-3306 + Olaparib; first compound 1 µM) | relative viability (RO-3306 + Navitoclax; first compound 0.03162 µM) | relative viability (RO-3306 + Navitoclax; first compound 0.1 µM) | relative viability (RO-3306 + Navitoclax; first compound 0.3162 µM) | relative viability (RO-3306 + Navitoclax; first compound 1 µM) | relative viability ([1]; first compound 0.8 µM) | relative viability ([1]; first compound 2.53 µM) | relative viability ([1]; first compound 8 µM) | relative viability ([2]; first compound 0.8 µM) | relative viability ([2]; first compound 2.53 µM) | relative viability ([2]; first compound 8 µM) | relative viability ([3]; first compound 2.53 µM) | relative viability ([3]; first compound 8 µM) | relative viability (RO-3306 + Navitoclax; first compound 0.01 µM) | relative viability ([3]; first compound 0.8 µM)
LCLC-97TM1 | 0.406 | 0.479 | 0.315 | 0.367 | 0.278 | 0.292 | 0.354 | 0.399 | 0.317 | 0.174 | 0.218 | 0.187 | 0.314 | 0.371 | 0.297 | 0.206 | 0.236 | – | –
LK-2 | 0.735 | 0.566 | 0.841 | 0.577 | 0.734 | 0.751 | 0.828 | 0.913 | 0.792 | 0.628 | 0.752 | 0.493 | 0.2 | 0.229 | 0.242 | 0.742 | 0.705 | 0.892 | 0.508
LOU-NH91 | 0.953 | 0.834 | 0.916 | 0.913 | 0.813 | 0.612 | 0.702 | 0.685 | 0.645 | 0.539 | 0.564 | 0.515 | 0.748 | 0.775 | 0.753 | 0.527 | 0.561 | 0.666 | 0.524
LU99A | 0.275 | 0.233 | 0.233 | 0.25 | 0.2 | 0.708 | 0.866 | 0.747 | 0.803 | 0.296 | 0.293 | 0.271 | 0.634 | 0.465 | 0.516 | 0.343 | 0.374 | 0.916 | 0.407
LXF-289 | 1.06 | 0.897 | 1.06 | 1.08 | 0.692 | 0.961 | 0.972 | 0.976 | 0.993 | 0.624 | 0.637 | 0.588 | 0.793 | 0.721 | 0.689 | 0.502 | 0.534 | 0.992 | 0.574
NCI-H23 | 0.333 | – | 0.25 | 0.307 | 0.268 | 0.842 | 0.87 | 0.881 | 0.613 | 0.641 | 0.521 | 0.538 | 0.471 | 0.452 | 0.513 | 0.526 | 0.478 | 0.965 | 0.484
NCI-H322M | 0.817 | 0.743 | 0.773 | 0.785 | 0.696 | 1.14 | 1.25 | 1.22 | 1.19 | 0.551 | 0.529 | 0.541 | 0.981 | 0.835 | 0.743 | 0.497 | 0.51 | 1.24 | 0.503
NCI-H441 | 0.641 | 0.461 | 0.592 | 0.581 | 0.443 | 0.71 | 0.382 | 0.57 | 0.364 | 0.523 | 0.401 | 0.495 | 0.992 | 0.869 | 0.717 | 0.16 | 0.211 | 0.593 | 0.212
NCI-H460 | 0.412 | 0.363 | 0.464 | 0.442 | 0.466 | – | 1.26 | 1.35 | 1.22 | 0.436 | 0.333 | 0.362 | 0.824 | 1.03 | 1 | 0.133 | 0.113 | 1.26 | 0.16
NCI-H520 | 0.359 | 0.244 | 0.315 | 0.344 | 0.351 | 1.13 | 1.13 | 1.01 | 0.942 | 0.31 | 0.258 | 0.387 | 0.939 | 0.767 | 0.855 | 0.254 | 0.236 | 1.27 | 0.231
NCI-H647 | 0.86 | 0.212 | 0.487 | 0.686 | 0.623 | 1.24 | 1.07 | 1.24 | 0.966 | 0.323 | 0.345 | 0.372 | 1.52 | 1.23 | 0.906 | 0.305 | 0.408 | 1.45 | 0.329
NCI-H727 | 0.666 | 0.722 | 0.844 | 0.724 | 0.621 | 0.395 | 0.433 | 0.471 | 0.455 | 0.758 | 0.261 | 0.353 | 0.832 | 0.844 | 0.646 | 0.623 | 0.618 | 0.45 | 0.621
NCI-H838 | 0.894 | 0.562 | 0.768 | 0.808 | 0.869 | 1.14 | 1.17 | 1.19 | 1.21 | 0.46 | 0.403 | 0.642 | 1.05 | 0.866 | 0.815 | 0.244 | 0.276 | 1.26 | 0.241
NCI-H1355 | 0.682 | 0.659 | 0.738 | 0.8 | 0.786 | 0.915 | 0.949 | 1.04 | 0.946 | 0.415 | 0.389 | 0.491 | 1.22 | 0.98 | 0.935 | 0.42 | 0.359 | 1.12 | 0.377
NCI-H1437 | 0.628 | 0.564 | 0.614 | 0.588 | 0.619 | 0.996 | 1.05 | 1.13 | 1.1 | 0.374 | 0.327 | 0.412 | 0.909 | 0.706 | 0.744 | 0.268 | 0.304 | 1.16 | 0.308
NCI-H1650 | 0.933 | 0.718 | 0.809 | 0.784 | 0.656 | 1.11 | 1.19 | 1.19 | 0.974 | 0.69 | 0.588 | 0.534 | 0.972 | 0.972 | 1.04 | 0.276 | 0.367 | 1.15 | 0.308
